{"source": "patent US11896582B2", "about": "“Use and composition for treating myasthenia gravis and other myasthenic syndromes” (priority 2017, dated 2024)", "tested_on": "human subjects", "assay": "Phase I single-blind study: single increasing oral doses of pyridostigmine bromide with or without ondansetron, gastro-intestinal tolerability", "assay_type": "in vivo", "conditions": "healthy volunteers, one value per subject; for FID-1 Dose Limiting Adverse Event: pyridostigmine alone, oral", "procedure": "A Phase I study was conducted in human subjects receiving a single oral dose of pyridostigmine bromide with or without a single oral dose of ondansetron hydrochloride dihydrate (“ondansetron”), as a representative 5HT3-antagonist. The study was a single center, single-blind study.\nFollowing enrollment in the study, participants received single increasing oral doses of pyridostigmine, given once daily in the morning. The starting dose of pyridostigmine was 30 mg and the dose was increased daily by 30 mg increments. Once a subject had reached his/her first intolerable dose (“FID-1”), upward dose escalation was discontinued. FID was defined as: • (a) One (1) episode of vomiting, or • (b) Two (2) episodes of retching, or • (c) One (1) episode of severe nausea (Grade 3; defined as nausea interfering with activities of daily living or inadequate oral caloric or fluid intake; tube feeding, total parenteral nutrition or hospitalization indicated) lasting more than 1 hour, or • (d) Three (3) consecutive episodes at every 4-hour ratings of moderate nausea (Grade 2; defined as subjectively symptomatic, but not interfering with activities of daily living), or • (e) One (1) episode of moderate diarrhea (Grade 2; defined as 4-6 stools more than at baseline).\nWhen a subject reached FID-1 on pyridostigmine alone, the subject was washed out for 2 to 7 days, and then received single daily doses of pyridostigmine starting at 30 mg and titrated upward by 30 mg increments, together with oral ondansetron hydrochloride dihydrate (10 mg, equivalent to 8 mg ondansetron base) until subjects again reached an intolerable dose (FID-2).\nOn each study day, subjects were followed up for up to 8 hours following drug administration for AEs, vital signs, ECGs. In addition, a laboratory panel was taken at screening and at the end of the study.", "note": "Values joined by “and” are separate entries in the source; they are usually repeats but may differ in a detail not shown here. Equal entries are not always repeated.", "data": [{"smiles": "CN(C)C(=O)Oc1ccc[n+](C)c1", "note": "[Pyridostigmine, Pyridostigmine bromide]", "values": [{"measurement": "FID-1 (Pyridostigmine alone)", "setting": "first intolerable dose, single oral daily doses from 30 mg, raised by 30 mg increments", "value": "60 mg (2×) and 90 mg"}, {"measurement": "MTD-1 (Pyridostigmine alone)", "setting": "maximum tolerated single oral dose", "value": "30 mg and 60 mg"}, {"measurement": "FID-1 Dose Limiting Adverse Event", "value": "Vomiting"}, {"measurement": "FID-1 Dose Limiting Adverse Event", "setting": "listed as pyridostigmine", "value": "vomiting"}]}]}
